US20240024287A1, “APPLICATION OF ANLE138B IN DRUG FOR IMPROVING DIET-INDUCED INSULIN RESISTANCE” (The First Affiliated Hospital of Shantou University Medical …, priority 2022, published 2024)
“And” between values parts separate entries of the source, which are not always exact repeats. Equal values may be shown once. Marks after values point to notes of the source that are not given here.

What was measured:
[1] = system: normal rats; experiment: Normal rats given Anle138b (normal drug / drug control group); format: in vivo; settings: 3 mg/kg i.p., 2 weeks
Excerpt: (§1) 8-week-old male […] were selected as experimental animals. The rats were adaptively fed for 1 week after purchase, and then weighed for the fasting body weight. The healthy rats weighing 22-24 g were selected and randomly divided into groups according to the experimental flow design. (1) The rats were fed with normal feed and high-fructose feed for 8 weeks; (2) the rats were fed with high-fat feed for 12 weeks; (3) the rats were fed with high-fat feed for 8 weeks as a preventive experiment. Fasting body weights were measured and recorded regularly every week, and the rats were guaranteed to have free access to water and food during feeding. The food intake, water intake, and free movement of the model rats were continuously observed, and the rats with stunted growth, rough hair, and rickety posture after eating high-fructose and high-fat diets were screened out. In the experiment later, the rats were fed with normal feed or high-fructose/high-fat feed during the 2 weeks of intraperitoneal injection to ensure the consistency before and after administration.
(§2) Anle138b solutions: The drug doses required for 1 week of intervention for each group of rats were calculated, Anle138b drug concentrations of 1 mg/kg (0.01%), 3 mg/kg (0.03%) and 5 mg/kg (0.05%) were prepared, Anle138b powder was weighed and then added in 10% DMSO, 40% PEG300, 5% Tween-80 and 45% saline in sequence, each mixture was evenly blended by vortex into a clear solution, and each Anle138b solution was separately bottled according to the daily dose and stored in a refrigerator at 4° C.
(§3) The 8-week-old adult rats were modeled by changing the diets after 1 week of adaptive feeding. Blood was collected from the right orbital venous plexus with a glass tube at 8 weeks and 12 weeks after model establishment and after fasting (>12 h), and blood glucose levels were measured with a blood glucose tester (Sannuo GA-3); and the insulin resistance mode was judged by the subsequent determination of metabolic indexes, such as glucose tolerance test by intraperitoneal injection, fasting serum insulin (enzyme-linked immunosorbent assay, Raybiotech), serum triglyceride (GPO-PAP single-reagent microplate method, Nanjing Jiancheng) and cholesterol ([…] single-reagent microplate method, Nanjing Jiancheng).
(1) The normal rats were randomly divided into two groups: blank control group (n=6) and drug control group (n=7); the rats in the normal control group were intraperitoneally injected with a similar volume of solvent and Anle138b (3 mg/kg, 0.03%) according to the body weight for 2 weeks.

[2] = system: high-fructose-induced rat insulin resistance models; experiment: High-fructose-induced rat insulin resistance model, therapeutic administration; format: in vivo
Excerpt: as §1, §2
L-THP solution: The drug dose required for 1 week of intervention for each group of rats was calculated, L-THP drug concentrations of 3 mg/kg (0.03%) was prepared, light yellow L-THP powder was weighed and then added in 10% DMSO, 40% PEG300, 5% Tween-80 and 45% saline in sequence, each mixture was evenly blended by vortex into a clear solution, and each Anle138b solution was separately bottled according to the daily dosage and stored in a refrigerator at 4° C.
as §3
The rats were fed with 60% high-fructose diet for 8 weeks to establish insulin resistance models, and the rats fed with normal diet provided by the animal room of Shantou University Medical College were used as controls. After fasting, orbital blood was collected, and fasting blood glucose, serum insulin, glucose tolerance were determined to judge whether the modeling was successful. According to an insulin resistance index (HOMA-IR) as the core judgment index, the successfully modeled rats were enrolled by screening the IR index of >3 and randomly divided into groups to explore the influence of different concentrations of Anle138b on the rat insulin resistance models. The concentration gradients for different groups were 0 mg/kg (injection solvent, namely the model control group), 1 mg/kg, 3 mg/kg and 5 mg/kg clear Anle138b solution, as well as the L-THP 3 mg/kg positive drug control group. The rats were administrated by intraperitoneal injection for 2 weeks continuously, once a day.
The insulin resistance value was calculated in combination with the method for calculating the insulin resistance index (HOMA-IR) in the homeostasis model assessment method. […]

[3] = system: high-fat-induced rat insulin resistance models; experiment: High-fat-induced rat insulin resistance model, therapeutic administration; format: in vivo
Excerpt: as §1
(§4) A total energy-to-mass ratio was 4.73 kcal/g. The feed was provided by Beijing Huafukang Biotechnology Co., Ltd.
as §2, §3
The rat IR models were randomly divided into two groups, the rats were administrated with Anle138b 3 mg/kg (n=6, 0.03%) and 5 mg/kg (n=6, 0.05%) for 2 weeks continuously, once a day.
After the models were determined to be successful, the average value of food intake of each rat in the first two days was taken as its own food intake base. After the drug intervention, the daily food intake and body weight were measured and compared with their own bases for comparison of the standardized food intake and body weight of each rat. […]

[4] = system: high-fat-induced rat insulin resistance model; experiment: High-fat-induced rat insulin resistance model, preventive administration; format: in vivo, C57BL/6J rats; settings: high-fat diet, preventive 5 mg/kg
Excerpt: as §1, §4, §2, §3
Rats fed with high-fat diet for 5 weeks were randomly divided into high-fat feeding control group (n=6) and drug intervention group with Anle138b 5 mg/kg, and the rats were administered for 3 weeks continuously, once every two days.

[5] = system: high-fat-induced rat insulin resistance models; experiment: Anle138b treatment versus paired-feed (PF) group in high-fat rat insulin resistance models; format: in vivo; settings: high-fat model, 5 mg/kg, compared with PF group
Protocol: The rats fed with high-fat diet for 8 weeks were divided into paired-feed group (n=7) (the food intake was the same as that of high-fat Anle138b 5 mg/kg/d) and control group continuously fed with high-fat diet.
Pair-feed (PF) group: the pair-feed group was set according to the daily food intake in the high-fat group after intervention with Anle138b 5 mg/kg, the rats were given the same amount of high-fat diet every day, and the changes in the body weight and the metabolic indexes were measured.

[6] = 1 mg/kg i.p. once a day, 2 weeks
[7] = 3 mg/kg i.p. once a day, 2 weeks
[8] = 5 mg/kg i.p. once a day, 2 weeks
[9] = 2 weeks, with increase of drug concentration
[10] = 3 mg/kg/d, 2 weeks, 3 mg/kg/day
[11] = 5 mg/kg/d, 2 weeks, 5 mg/kg/day

Brc1cccc(-c2cc(-c3ccc4c(c3)OCO4)[nH]n2)c1 [Anle138b]
Body Weight After Administration [1]: 25.65 ± 0.7842 g | Fasting Blood Glucose [1]: 3.650 ± 0.33 mmol/L | Fasting Insulin ([1]; 3 mg/kg): 15.08±13.14 μIU/mL | HOMA-IR ([1]; 3 mg/kg): 1.1689±1.153 μIU/mL*mmol/L and 1.1689 ± 1.15 μIU/mL*mmol/L | Body Weight After Administration [2, 6]: 25.58 ± 1.555* * g | Fasting Blood Glucose [2, 6]: 5.100 ± 0.65 # mmol/L | Fasting Insulin [2, 6]: 48.97 ± 1.38 μIU/mL | HOMA-IR [2, 6]: 11.3 ± 1.78 μIU/mL*mmol/L | Glucose tolerance test area under curve (AUC) ([2]; 1 mg/kg i.p., 2 weeks): 1,307±46.38 min*mmol/L | Right epididymal fat weight index (fat weight/fasting body weight) ([2]; 1 mg/kg i.p., 2 weeks): 0.008918±0.0003788 | Body Weight After Administration [2, 7]: 25.51 ± 0.8009 g | Fasting Blood Glucose [2, 7]: 5.300 ± 0.89 mmol/L | Fasting Insulin [2, 7]: 21.46 ± 10.36 # μIU/mL | HOMA-IR [2, 7]: 5.438 ± +2.13 # μIU/mL*mmol/L | Right epididymal fat weight index (fat weight/fasting body weight) ([2]; 3 mg/kg i.p., 2 weeks): 0.007657±0.002366 | Body Weight After Administration [2, 8]: 24.25 ± +2.652 g | Fasting Blood Glucose [2, 8]: 4.675 ± 0.95 # mmol/L | Fasting Insulin [2, 8]: 25.74 ± 12.24 # μIU/mL | HOMA-IR [2, 8]: 5.827 ± 3.78 # μIU/mL*mmol/L | Glucose tolerance test area under curve (AUC) ([2]; 5 mg/kg i.p., 2 weeks): 1,261±103.2 min*mmol/L | Right epididymal fat weight index (fat weight/fasting body weight) ([2]; 5 mg/kg i.p., 2 weeks): 0.007971±0.00142 | Epididymal adipose tissue pathomorphism, HE staining [2, 9]: the adipocytes were reduced in sizes and arranged regularly | Liver pathomorphism, HE staining ([2]; different concentrations, dose-dependent): the hepatic steatosis was significantly alleviated | Fat weight index ([3]; 3 mg/kg): 0.01317±0.004212 | Feeding efficiency (daily body weight change/energy consumption) ([3]; 3 mg/kg): −0.007788±0.01949 g/calories/rat/day | Glucose tolerance test area under curve (AUC) ([3]; 3 mg/kg): 1,203±155.6 min*mmol/L | Liver weight index ([3]; 3 mg/kg): 0.04475±0.003 | Liver pathomorphism, HE staining ([3]; 3 mg/kg and 5 mg/kg): the hepatic steatosis was significantly alleviated | Pancreas pathomorphism, HE staining ([3]; 3 mg/kg and 5 mg/kg, as the dose increases): the acinar steatosis was significantly alleviated | Average daily food intake ([3]; 3 mg/kg once a day, 2 weeks): 1.946 ± 0.4777 g/day | Body weight after intervention ([3]; 3 mg/kg once a day, 2 weeks): 28.97 ± 1.657 g | Fasting Blood Glucose [3, 10]: 5.283 ± 0.74 mmol/L | Fasting Insulin [3, 10]: 55.24±28.94 μIU/mL | Insulin Resistance Index [3, 10]: 11.6±5.044 μIU/mL*mmol/L and 11.6 ± 5.04 μIU/mL*mmol/L | Triglyceride [3, 10]: 0.5138 ± 0.06 mmol/L | Fat weight index ([3]; 5 mg/kg): decreased | Feeding efficiency (daily body weight change/energy consumption) ([3]; 5 mg/kg): −0.01528±0.01287 g/calories/rat/day | Glucose tolerance test area under curve (AUC) ([3]; 5 mg/kg): 1,059±153.2 min*mmol/L | Liver weight index ([3]; 5 mg/kg): 0.04344±0.0026 | Body weight after intervention ([3]; 5 mg/kg once a day, 2 weeks): 28.9 ± 1.685 g | Average daily food intake ([3]; 5 mg/kg once a day, 2 weeks, P<0.001): significantly lower than that of the model group | Fasting Blood Glucose [3, 11]: 4.867 ± 0.36 mmol/L | Fasting Insulin [3, 11]: 36.27±16.53 μIU/mL | Insulin Resistance Index [3, 11]: 8.446±3.617 μIU/mL*mmol/L and 8.446 ± 3.62 μIU/mL*mmol/L | Triglyceride [3, 11]: 0.5164 ± 0.06 mmol/L | Epididymal adipose tissue pathomorphism, HE staining [3, 9]: the adipocytes were reduced in sizes and arranged regularly | Skeletal muscle pathomorphism, HE staining ([3]; drug intervention 2 weeks): the intermuscular steatosis was relieved | Adipose tissue pathomorphism, HE staining [4]: relieved the structural disorder of the adipose tissue | Daily feeding efficiency [4]: −0.03518±0.02726 | Fasting Blood Glucose [4]: 6.313 ± 0.63 mmol/L | Fasting Insulin [4]: 22.09±6.49 μIU/mL | Fat weight index [4]: 0.01195±0.003 | Glucose tolerance test area under curve (AUC) [4]: 1,269±74 min*mmol/L | Insulin Resistance Index [4]: 6.880±2.73 μIU/mL*mmol/L | Liver weight index [4]: 0.03763±0.001 | Pancreas pathomorphism, HE staining [4]: significantly inhibit the steatosis of pancreatic acinar cells | Total Cholesterol [4]: 3.383 ± 0.21 mmol/L | Triglyceride [4]: 0.4687 ± 0.05 mmol/L | Body weight at end point of prevention experiment ([4]; 3 weeks, once every two days): 25.8 ± 0.67 g | Food intake ([4]; 3 weeks, once every two days): 1.805±0.19 g/rat | Average body weight [5]: 28.23 ± 0.66 g | Fasting Blood Glucose [5]: 4.87 ± 0.36 mmol/L | Feeding efficiency [5]: −0.015±0.013 | Triglyceride [5]: 0.52 ± 0.06 mmol/L

COc1cc2c(cc1OC)[C@@H]1Cc3ccc(OC)c(OC)c3CN1CC2 [L-THP, reference compound]
Body Weight After Administration [2, 7]: 24.24 ± 1.255 g | Fasting Blood Glucose [2, 7]: 4.967 ± 0.39 # mmol/L | Fasting Insulin [2, 7]: 24.76 ± 9.70 # # μIU/mL | HOMA-IR [2, 7]: 6.029 ± 3.33 # μIU/mL*mmol/L | Right epididymal fat weight index (fat weight/fasting body weight) ([2]; 3 mg/kg i.p., 2 weeks): 0.00751±0.002279
